Measured values from patent publication US20040220268A1, “Compound that directly stimulates phospholipase C activity” (priority 2003, published 2004).

Target: T1, PLC γ2 (Homo sapiens, UniProt P16885)
T1 sequence (P16885 1-1265): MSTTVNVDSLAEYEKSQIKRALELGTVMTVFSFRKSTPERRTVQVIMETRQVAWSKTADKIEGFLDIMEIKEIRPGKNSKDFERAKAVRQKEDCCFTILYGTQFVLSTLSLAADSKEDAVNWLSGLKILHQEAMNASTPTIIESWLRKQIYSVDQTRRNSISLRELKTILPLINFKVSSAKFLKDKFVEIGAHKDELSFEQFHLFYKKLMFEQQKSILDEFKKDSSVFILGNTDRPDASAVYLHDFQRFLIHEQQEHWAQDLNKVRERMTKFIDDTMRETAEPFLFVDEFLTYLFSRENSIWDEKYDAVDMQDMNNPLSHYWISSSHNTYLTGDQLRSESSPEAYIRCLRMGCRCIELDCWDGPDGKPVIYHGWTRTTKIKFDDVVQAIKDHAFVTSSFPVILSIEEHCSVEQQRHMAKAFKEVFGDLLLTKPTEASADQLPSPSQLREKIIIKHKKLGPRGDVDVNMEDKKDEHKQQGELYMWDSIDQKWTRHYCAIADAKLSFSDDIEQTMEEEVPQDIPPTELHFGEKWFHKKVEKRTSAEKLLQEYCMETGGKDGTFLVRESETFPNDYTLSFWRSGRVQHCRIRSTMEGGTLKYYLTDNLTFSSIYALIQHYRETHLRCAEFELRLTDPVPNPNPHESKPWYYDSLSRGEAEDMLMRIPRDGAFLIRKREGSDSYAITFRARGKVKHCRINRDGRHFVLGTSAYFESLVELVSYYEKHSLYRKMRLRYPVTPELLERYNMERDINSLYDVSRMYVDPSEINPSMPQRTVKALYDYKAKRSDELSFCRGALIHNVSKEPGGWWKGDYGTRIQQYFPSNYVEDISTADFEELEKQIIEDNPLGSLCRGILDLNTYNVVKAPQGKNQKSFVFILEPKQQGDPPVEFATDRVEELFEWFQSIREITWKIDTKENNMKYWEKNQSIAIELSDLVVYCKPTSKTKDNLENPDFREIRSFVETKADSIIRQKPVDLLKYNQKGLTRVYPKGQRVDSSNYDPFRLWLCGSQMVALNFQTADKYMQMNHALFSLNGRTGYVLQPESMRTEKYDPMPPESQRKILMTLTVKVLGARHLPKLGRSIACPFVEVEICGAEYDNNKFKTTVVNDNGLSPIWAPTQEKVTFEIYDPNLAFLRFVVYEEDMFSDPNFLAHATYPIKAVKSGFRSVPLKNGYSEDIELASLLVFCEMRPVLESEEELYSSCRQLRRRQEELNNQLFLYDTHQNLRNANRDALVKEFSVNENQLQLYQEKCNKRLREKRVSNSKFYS
Assay: Phosphoinositide hydrolysis in vitro
Type: biochemical
Conditions: 25 μM; purified isozyme
Method: The hydrolyzing activity of PtdIns-4,5-P2 was measured on mixed phospholipid vesicles containing 120 μM phosphatidylethanolamine, 30 μM PtdIns-4,5-P2, and 1 μCi/ml [3H] PtdIns-4,5-P2. Purified PLC β2, substrates, and the chemicals (2.5, 5, 10, 20, and 25 μM of m-3M3FBS or of o-3M3FBS) were coincubated (A), 25 μM of m-3M3FBS or o-3M3FBS, and phospholipid substrates were mixed with purified PLC β3, γ1, 2, or δ1 (B). Reactions were performed for 10 min at 37° C. in a 200 μl reaction mixture containing lipid micelles (5 μM [^3H] PtdIns-4,5-P2, 20,000 cpm). Reactions were stopped by adding 1 ml of CHCl3:CH3OH:HCl (50:50:0.3, v/v/v). Inositol trisphosphates were extracted with 0.5 ml of 1 M HCl/5 mM EGTA, and the radioactivity in the upper aqueous phase was measured. Data are presented as means ±S. E. M. of three independent experiments (A, B).
PLC activity was assayed using [^3H] PtdIns-4,5-P2 as a substrate (Min et al., 1993). PtdIns-4,5-P2-hydrolyzing activity was measured with mixed phospholipid micelles containing 120 μM phosphatidylethanolamine, 30 μM PtdIns-4,5-P2, and 1 μCi/ml [^3H] PtdIns-4,5-P2. The lipids, in chloroform, were dried under a stream of nitrogen gas, suspended in assay buffer (20 mM HEPES pH 7.0, 120 mM NaCl, 2 mM MgCl2, 40 or 100 μM CaCl2, and 1 mg/ml bovine albumin serum (Bayer, Leverkusen, Germany)), and sonicated. All proteins added to the reaction mixture were dialyzed overnight against the assay buffer. Incubation was performed for 10 min at 37° C. in a 200 μl reaction mixture containing lipid micelles (5 μM [3H] PtdIns-4,5-P2, 20,000 cpm). The reaction was stopped by adding 2 ml of CHCl3: CH3OH: HCl (50: 50: 0.3, v/v/v). The inositol triphosphates were extracted with 0.5 ml of 1 N HCl, and radioactivities in the upper aqueous phase were measured.

Structure (SMILES) | activity of PLC gamma2
Cc1cc(C)c(S(=O)(=O)Nc2ccccc2C(F)(F)F)c(C)c1 [o-3M3FBS, 2,4,6-Trimethyl-N-(ortho 3-trifluoromethyl-phenyl)-benzenesulfonamide, reference compound] | did not affect
Cc1cc(C)c(S(=O)(=O)Nc2cccc(C(F)(F)F)c2)c(C)c1 [m-3M3FBS, 2,4,6-Trimethyl-N-(meta 3-trifluoromethyl-phenyl)-benzenesulfonamide] | augmented the activity
